According to patent US7414048B2, “4,5-dihydro-isoxazole derivatives and their pharmaceutical use” (Janssen Pharmaceutica, N.V., priority 1998, dated 2008):

The molecules below were run on T cell blast formation in human blood (assay: In vitro inhibition of T cell blast formation in human blood (human whole blood blast formation, PHA stimulated, flow cytometry)). Conditions: Test Dose 1 × 10^−5 (unit not given), 72 hours, mean where multiple measurements.
Assay type: cell-based
Protocol: Cells are collected after a 72 hours culture period at 37° C., supernatant is removed by centrifugation and red blood cells are lysed by a hypotonic buffer. The remaining white blood cells are collected in PBS containing propidium iodide. The blast formation is analyzed using a benchtop flow cytometer (Cytoron, Ortho) equipped with an argon-ion laser. […] When multiple measurements were performed, a mean value was calculated for the percentage inhibition of T cell blast formation.

Row | SMILES | % Inhibition of T cell blast formation [%]
1 | O=C(Nc1cccc2ccccc12)c1ccc(NC(=O)C2CC(c3cccnc3)=NO2)cc1 (stereo not drawn) [Compound 266] | 85
2 | O=C(Nc1ccc(Sc2ccccc2)cc1)C1CC(c2cccnc2)=NO1 (stereo not drawn) [Compound 374] | 85

Same assay, conditions: Test Dose 1 × 10^−6 (unit not given), 72 hours, mean where multiple measurements

Row | SMILES | % Inhibition of T cell blast formation [%]
3 | NC(c1ccccc1)c1ccc(NC(=O)[C@@H]2CC(c3cccnc3)=NO2)cc1 (stereo partly drawn) [Compound 206, [5S-(B)]-N-[4-(aminophenylmethyl)phenyl]4,5-dihydro-3-(3-pyridinyl)-5-isoxazolecarboxamide] | 66
4 | O=C(Nc1ccc(C(Nc2cccc(F)c2)c2ccccc2)cc1)C1CC(c2cccnc2)=NO1 (stereo not drawn) [Compound 214] | 62
5 | O=C(Nc1ccc(C(Nc2cccc(Cl)c2)c2ccccc2)cc1)C1CC(c2cccnc2)=NO1 (stereo not drawn) [Compound 216] | 70
6 | O=C(Nc1ccc(C(c2ccccc2)N2CCOCC2)cc1)C1CC(c2cccnc2)=NO1 (stereo not drawn) [Compound 221] | 63
7 | O=C(NCCc1ccccc1)c1ccc(NC(=O)C2CC(c3cccnc3)=NO2)cc1 (stereo not drawn) [Compound 258] | 59
8 | CC(C)(NC(=O)c1ccc(NC(=O)C2CC(c3cccnc3)=NO2)cc1)c1ccccc1 (stereo not drawn) [Compound 259] | 51
9 | O=C(Nc1cccnc1)c1ccc(NC(=O)C2CC(c3cccnc3)=NO2)cc1 (stereo not drawn) [Compound 263] | 59
10 | O=C(NCCc1ccco1)c1ccc(NC(=O)C2CC(c3cccnc3)=NO2)cc1 (stereo not drawn) [Compound 268] | 58
11 | O=C(NCc1ccccc1Br)c1ccc(NC(=O)C2CC(c3cccnc3)=NO2)cc1 (stereo not drawn) [Compound 269] | 67
12 | O=C(NCc1ccc(F)cc1)c1ccc(NC(=O)C2CC(c3cccnc3)=NO2)cc1 (stereo not drawn) [Compound 270] | 71
13 | COc1cccc(CNC(=O)c2ccc(NC(=O)C3CC(c4cccnc4)=NO3)cc2)c1 (stereo not drawn) [Compound 272] | 67
14 | Cc1ccc(CNC(=O)c2ccc(NC(=O)C3CC(c4cccnc4)=NO3)cc2)cc1 (stereo not drawn) [Compound 273] | 62
15 | COc1ccc(CNC(=O)c2ccc(NC(=O)C3CC(c4cccnc4)=NO3)cc2)c(OC)c1 (stereo not drawn) [Compound 274] | 71
16 | O=C(NCc1c(F)cccc1F)c1ccc(NC(=O)C2CC(c3cccnc3)=NO2)cc1 (stereo not drawn) [Compound 279] | 74
17 | COc1cc(CNC(=O)c2ccc(NC(=O)C3CC(c4cccnc4)=NO3)cc2)cc(OC)c1OC (stereo not drawn) [Compound 281] | 74
18 | COc1ccccc1CNC(=O)c1ccc(NC(=O)C2CC(c3cccnc3)=NO2)cc1 (stereo not drawn) [Compound 285] | 72
19 | O=C(NCc1cccc(C(F)(F)F)c1)c1ccc(NC(=O)C2CC(c3cccnc3)=NO2)cc1 (stereo not drawn) [Compound 288] | 53
20 | O=C(NCc1cccs1)c1ccc(NC(=O)C2CC(c3cccnc3)=NO2)cc1 (stereo not drawn) [Compound 289] | 64
21 | COc1ccc(CNC(=O)c2ccc(NC(=O)C3CC(c4cccnc4)=NO3)cc2)cc1 (stereo not drawn) [Compound 290] | 67

Row | SMILES | % Inhibition of T cell blast formation [%]
22 | O=C(NCc1cnc2ccccc2c1)c1ccc(NC(=O)C2CC(c3cccnc3)=NO2)cc1 (stereo not drawn) [Compound 291] | 78
23 | CON=C(c1ccccc1)c1ccc(NC(=O)C2CC(c3cccnc3)=NO2)cc1 (stereo not drawn) [Compound 303] | 78
24 | NC(=O)C(c1ccc(Cl)cc1)c1ccc(NC(=O)C2CC(c3cccnc3)=NO2)cc1Cl (stereo not drawn) [Compound 309] | 92
25 | NC(=O)C(c1ccccc1)c1ccc(NC(=O)C2CC(c3cccnc3)=NO2)cc1 (stereo not drawn) [Compound 312] | 93
26 | O=C(c1ccccc1)c1ccc(NC(=O)C2CC(c3cccnc3)=NO2)nc1 (stereo not drawn) [Compound 371] | 62
27 | O=C(Nc1ccc(Nc2ccccc2)cc1)C1CC(c2cccnc2)=NO1 (stereo not drawn) [Compound 377] | 85
28 | O=C(CCc1ccccc1)c1ccc(NC(=O)C2CC(c3cccnc3)=NO2)cc1 (stereo not drawn) [Compound 380] | 67
29 | COc1ccccc1C(=O)c1ccc(NC(=O)C2CC(c3cccnc3)=NO2)cc1 (stereo not drawn) [Compound 390] | 85
30 | O=C(c1ccc(NC(=O)C2CC(c3cccnc3)=NO2)cc1)c1ccc2ccccc2n1 (stereo not drawn) [Compound 392] | 80
31 | O=C(c1ccc(NC(=O)C2CC(c3cccnc3)=NO2)cc1)c1cnc2ccccc2c1 (stereo not drawn) [Compound 393] | 69
32 | COc1ccc(OC)c(C(=O)c2ccc(NC(=O)C3CC(c4cccnc4)=NO3)cc2)c1 (stereo not drawn) [Compound 395] | 77
33 | COc1cc(C(=O)c2ccc(NC(=O)C3CC(c4cccnc4)=NO3)cc2)cc(OC)c1OC (stereo not drawn) [Compound 396] | 65
34 | COc1cccc(OC)c1C(=O)c1ccc(NC(=O)C2CC(c3cccnc3)=NO2)cc1 (stereo not drawn) [Compound 397] | 82
35 | O=C(c1ccc(NC(=O)C2CC(c3cccnc3)=NO2)cc1)c1ccc(F)cc1F (stereo not drawn) [Compound 398] | 87
36 | CC(O)(c1ccccc1)c1ccc(NC(=O)C2CC(c3cccnc3)=NO2)cc1 (stereo not drawn) [Compound 411, (A2)-4,5-dihydro-N-[4-(1-hydroxy-1-phenylethyl)phenyl]-3-(3-pyridinyl)-5-isoxazolecarboxamide] | 77
37 | CC(=O)OCC(C#N)(c1ccccc1)c1ccc(NC(=O)C2CC(c3cccnc3)=NO2)cc1 (stereo not drawn) [Compound 413] | 85
38 | N#CC(OC(=O)c1ccccc1)(c1ccccc1)c1ccc(NC(=O)C2CC(c3cccnc3)=NO2)cc1 (stereo not drawn) [Compound 415] | 65
39 | COCCOC(c1ccccc1)c1ccc(NC(=O)C2CC(c3cccnc3)=NO2)cc1 (stereo not drawn) [Compound 416] | 87

Same assay, conditions: Test Dose 1 × 10^−7 (unit not given), 72 hours, mean where multiple measurements

Row | SMILES | % Inhibition of T cell blast formation [%]
40 | O=C(c1ccncc1)c1ccc(NC(=O)C2CC(c3cccnc3)=NO2)cc1 (stereo not drawn) [Compound 388] | 74

Same assay, conditions: Test Dose 3 × 10^−7 (unit not given), 72 hours, mean where multiple measurements

Row | SMILES | % Inhibition of T cell blast formation [%]
41 | O=C(Nc1ccc(C(Nc2ccc(C(F)(F)F)cc2Br)c2ccccc2)cc1)C1CC(c2cccnc2)=NO1 (stereo not drawn) [Compound 218] | 33
42 | CN(C)c1ccc(CNC(=O)c2ccc(NC(=O)C3CC(c4cccnc4)=NO3)cc2)cc1 (stereo not drawn) [Compound 286] | 49
43 | Nc1cccc(F)c1CNC(=O)c1ccc(NC(=O)C2CC(c3cccnc3)=NO2)cc1 (stereo not drawn) [Compound 292] | 40
44 | O=C(NCc1ccc2c(c1)OCO2)c1ccc(NC(=O)C2CC(c3cccnc3)=NO2)cc1 (stereo not drawn) [Compound 295] | 35
45 | O=C(Nc1ccc(C(=O)N2CCC(O)(Cc3ccccc3)CC2)cc1)C1CC(c2cccnc2)=NO1 (stereo not drawn) [Compound 304] | 36
46 | O=C(Nc1ccc(C(=O)N2CCC(c3ccccc3)CC2)cc1)C1CC(c2cccnc2)=NO1 (stereo not drawn) [Compound 307] | 41
47 | NC(=O)C(c1ccc(Cl)cc1Cl)c1ccc(NC(=O)C2CC(c3cccnc3)=NO2)cc1Cl (stereo not drawn) [Compound 310] | 64
48 | CN(C)Cc1csc(NC(=O)C(c2ccccc2)c2ccc(NC(=O)C3CC(c4cccnc4)=NO3)cc2)n1 (stereo not drawn) [Compound 314] | 58
49 | O=C(Nc1ccc(C(C(=O)NCCN2CCOCC2)c2ccccc2)cc1)C1CC(c2cccnc2)=NO1 (stereo not drawn) [Compound 325] | 43
50 | O=C(Nc1ccc(Nc2ccc(S(=O)(=O)C(F)(F)F)cc2)cc1)C1CC(c2cccnc2)=NO1 (stereo not drawn) [Compound 376] | 69
51 | O=C(Nc1ccc(C(=O)N2CCN(c3ccccc3)CC2)cc1)C1CC(c2cccnc2)=NO1 (stereo not drawn) [Compound 379] | 51
52 | O=C(c1ccc(NC(=O)C2CC(c3cccnc3)=NO2)cc1)c1ccc(OC(F)(F)F)cc1 (stereo not drawn) [Compound 384] | 68
53 | O=C(c1ccc(NC(=O)C2CC(c3cccnc3)=NO2)cc1)c1c(F)cccc1F (stereo not drawn) [Compound 385] | 69
54 | Cn1cc(C(=O)c2ccc(NC(=O)C3CC(c4cccnc4)=NO3)cc2)cn1 (stereo not drawn) [Compound 386] | 38
55 | O=C(c1ccc(NC(=O)C2CC(c3cccnc3)=NO2)cc1)c1cccnc1 (stereo not drawn) [Compound 387] | 78
56 | O=C(c1ccc(NC(=O)C2CC(c3cccnc3)=NO2)cc1)c1ccc2c(c1)OCO2 (stereo not drawn) [Compound 389] | 59
57 | O=C(Nc1ccc(C(O)c2ccncc2)cc1)C1CC(c2cccnc2)=NO1 (stereo not drawn) [Compound 407] | 63
58 | O=C(Nc1ccc(C(O)c2ccc(F)cc2F)cc1)C1CC(c2cccnc2)=NO1 (stereo not drawn) [Compound 408] | 71
59 | COc1ccccc1C(O)c1ccc(NC(=O)C2CC(c3cccnc3)=NO2)cc1 (stereo not drawn) [Compound 409] | 88
60 | O=C(Nc1ccc(C(O)c2ccccc2)cc1)[C@@H]1CC(c2cccnc2)=NO1 (stereo partly drawn) [Compound 412] | 79
